From article PMC6275967 (ACS Omega, 2018)
≈ marks a conversion by molar mass, not a printed value. Where “and” joins values, the source holds several entries; their conditions need not be identical. Equal values may be shown once. Values belong to the compound of their own block, whether it stands above or below them.

Legend:
[1] = biological target: cupin domain of CapF; conditions: isothermal titration calorimetry; cited from earlier work
[2] = tested on: S. aureus Newman, G01, and F4; test: MIC80 of S. aureus Newman, G01 and F4
[3] = tested on: E. coli (ATCC 35218); test: MIC80 by broth microdilution; assay type: cell-based, Escherichia coli; conditions: for MIC80 E. coli (ATCC35218): ≥80% growth inhibition, 16–24 h, CAMHB
[4] = tested on: S. aureus (ATCC 29213); test: MIC80 by broth microdilution; assay type: cell-based, Staphylococcus aureus
[5] = tested on: Cryptococcus neoformans; conditions: ref 15 and unpublished data; cited from earlier work
[6] = tested on: E. coli (ATCC 35218); test: time-killing curve; assay type: cell-based, Escherichia coli; conditions: 16× MIC80, within 6 h

MIC80 ([2]; S. aureus F4 (Newman with ermB-inactivated cap5F gene)): 100 µM (≈ 16.2 µg/mL)
MIC80 ([2]; S. aureus G01 (Newman with ermB-inactivated cap5G gene)): 100 µM (≈ 16.2 µg/mL)
MIC80 ([2]; S. aureus Newman): 66.7 µM (≈ 10.8 µg/mL)
Compound: C=C(C)c1ccccc(=O)c1O [Compound 349, 3-isopropenyl-tropolone]
Kd [1]: 27 ± 7 µM
growth inhibition, in words ([2]; F4 and G01 strains): did not inhibit
growth inhibition, in words ([2]; wild-type Newman): slightly inhibited

MIC80 E. coli (ATCC35218) [3]: < 20 µM
Compound: O=C(Sc1cccccc1=O)c1ccccc1C(F)(F)F [Compound 677]

MIC80 E. coli (ATCC35218) [3]: < 20 µM
Compound: O=c1cccccc1Sc1cccccc1=O [Compound 684]

Compound: O=c1cccccc1S [Compound 363, thiotropolone]
inhibition of S. aureus, in words ([4]; structure-activity discussion): only slightly decreased
MIC80 Cryptococcus neoformans [5]: 0.25 µM (≈ 0.0345 µg/mL)
reduction of colony count [6]: ~3 log10

MIC80 E. coli (ATCC35218) [3]: < 20 µM
Compound: O=c1cccccc1SSc1cccccc1=O [Compound 685]

Compound: CC[C@H](C)[C@H](NC(=O)OCC1c2ccccc2-c2ccccc21)C(=O)Sc1cccccc1=O [Compound 686]
activity against E. coli, in words [3]: inactive

MIC80 S. aureus (ATCC29213) ([4]; ≥80% growth inhibition, 16–24 h, CAMHB): < 20 µM
MIC80 E. coli (ATCC35218) [3]: < 30 µM
Compound: O=C(Sc1cccccc1=O)c1ccccc1 [Compound 364]

MIC80 E. coli (ATCC35218) [3]: < 30 µM and < 20 µM
Compound: O=C(Cc1ccccc1)Sc1cccccc1=O [Compound 680]

MIC80 E. coli (ATCC35218) [3]: < 20 µM
Compound: O=C(Sc1cccccc1=O)c1cccc(C(F)(F)F)c1 [Compound 678]
